Results reported in paper PMC7997574, “Lead Optimization of Benzoxazolone Carboxamides as Orally Bioavailable and CNS Penetrant Acid Ceramidase Inhibitors” (Journal of Medicinal Chemistry, 2020).

Legend:
[1] = biological target: T1, human fatty acid amide hydrolyase (FAAH) (Homo sapiens, UniProt O00519); assay: Fluorogenic hFAAH assay; assay type: biochemical
T1 construct: expressed in transfected cells
T1 sequence (O00519 1-579): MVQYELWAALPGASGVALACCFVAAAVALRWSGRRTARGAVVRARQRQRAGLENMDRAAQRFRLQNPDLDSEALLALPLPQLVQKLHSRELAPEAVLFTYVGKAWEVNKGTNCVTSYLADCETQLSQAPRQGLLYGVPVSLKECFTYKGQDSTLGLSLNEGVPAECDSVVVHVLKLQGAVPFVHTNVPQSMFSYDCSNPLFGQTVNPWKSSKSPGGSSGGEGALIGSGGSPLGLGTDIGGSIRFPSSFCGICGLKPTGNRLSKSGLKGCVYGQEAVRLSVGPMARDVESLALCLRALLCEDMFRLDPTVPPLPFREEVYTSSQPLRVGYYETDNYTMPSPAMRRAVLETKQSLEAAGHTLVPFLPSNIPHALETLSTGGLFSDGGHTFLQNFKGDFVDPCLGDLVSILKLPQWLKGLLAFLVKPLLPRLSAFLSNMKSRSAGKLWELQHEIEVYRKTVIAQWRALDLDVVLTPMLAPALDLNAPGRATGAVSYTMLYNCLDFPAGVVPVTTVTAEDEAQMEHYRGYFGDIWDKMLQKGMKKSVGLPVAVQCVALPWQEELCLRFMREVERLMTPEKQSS
Description: hFAAH was obtained from a HEK-293 FAAH-1 overexpressing stable cell line. Cells were grown in Dulbecco’s modified Eagle medium (DMEM) containing 10% FBS, 1% penicillin/streptomycin, 1% glutamine, 1 mM sodium pyruvate, and 500 μg mL^–1 G418. Cells were harvested, and pellets were stored at −80 °C until membrane-enriched lysate preparation. The cell pellet was resuspended in 20 mM Tris HCl (pH 7.4, 0.32 M sucrose), sonicated, and centrifuged at 1000 × g (10 min, 4 °C). The collected supernatant was centrifuged at 12000 × g for 10 min at 4 °C, and the supernatants were further centrifuged at 100000 × g for 1 h at 4 °C. Membrane pellets were resuspended in PBS, protein concentration was measured, and samples were aliquoted and stored at −80 °C until use.
The fluorescence assay to measure FAAH activity was performed in 96-well black plates (Black OptiPlate-96F; PerkinElmer, Massachusetts, USA): 2.5 μg of hFAAH membrane preparation was preincubated for 50 min at 37 °C in 190 μL of assay buffer (50 mM Tris HCl pH 7.4, 0.05% fatty acid free BSA), with 5 μL of inhibitor or 5 μL of DMSO to measure FAAH total activity. […] The reaction was carried out for 45 min at 37 °C, and fluorescence was measured with an EnVision 2014 Multilabel Reader (PerkinElmer, Massachusetts, USA) (excitation wavelength 355 nm/emission wavelength 460 nm). […]

[2] = biological target: T2, acid sphingomyelinase (ASM) (Homo sapiens, UniProt P17405); assay: In vitro hASM assay; assay type: biochemical; conditions: 1 and 10 μM
T2 construct: 1.3 nM purified human full-length ASM enzyme (purified in house); made in house
T2 sequence (P17405 47-631): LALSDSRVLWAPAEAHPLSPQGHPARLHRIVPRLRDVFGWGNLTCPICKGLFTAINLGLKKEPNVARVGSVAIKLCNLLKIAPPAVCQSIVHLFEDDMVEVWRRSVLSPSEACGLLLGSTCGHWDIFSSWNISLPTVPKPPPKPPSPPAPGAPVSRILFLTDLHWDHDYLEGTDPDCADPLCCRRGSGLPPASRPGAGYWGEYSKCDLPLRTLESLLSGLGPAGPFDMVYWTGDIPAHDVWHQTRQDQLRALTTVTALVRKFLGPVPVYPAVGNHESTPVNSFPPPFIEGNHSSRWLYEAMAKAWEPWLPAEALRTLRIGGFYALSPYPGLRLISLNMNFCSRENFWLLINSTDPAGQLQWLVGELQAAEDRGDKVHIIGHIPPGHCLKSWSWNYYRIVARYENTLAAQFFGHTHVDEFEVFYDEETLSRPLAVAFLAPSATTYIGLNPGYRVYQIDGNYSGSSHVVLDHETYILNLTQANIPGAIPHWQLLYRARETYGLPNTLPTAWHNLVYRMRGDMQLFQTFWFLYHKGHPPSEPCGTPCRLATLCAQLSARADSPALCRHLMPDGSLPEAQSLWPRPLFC
Description: hASM activity measurement was conducted using the fluorogenic substrate 6-hexadecanoylamino-4-methylumbelliferylphosphorylcholine (HMU-PC, Toronto Research Chemicals) at 0.5 μM and 1.3 nM purified human full-length ASM enzyme (purified in house) in a buffer containing 50 mM citrate, 150 mM NaCl, 5 mM ZnCl2, and 0.43 mM Triton X-100 at pH 4.7 in a final volume of 50 μL. The reaction mixtures were incubated for 45 min at rt and stopped by the addition of 150 μL of 1 M glycine at pH 12.5. The formation of the fluorescent product was monitored by a plate reader at excitation/emission wavelengths of 385/450 nm. The average hASM activity was calculated from two independent experiments, each performed in two technical replicates.

## CC(C)CNC(=O)n1c(=O)oc2cc(C3CCN(C)CC3)ccc21 [22m, N-Isobutyl-6-(1-methyl-4-piperidyl)-2-oxo-1,3-benzoxazole-3-carboxamide]
[1]
  IC50: 0.07 µM
[2]
  effect on activity of ASM: no effect
